Source: patent US20100010219A1, “METHOD FOR PRODUCING PYRROLIDINE COMPOUND” (JAPAN TOBACCO INC., priority 2006, published 2010)
Counter-ions that a name gives are not always drawn.

Target: T1, human HSD-1 (recombinant HSD-1) (Homo sapiens, UniProt P28845)
T1 construct: made in house
Assay: HSD-1 activity inhibitory action in vitro (SPA, conversion of cortisone to cortisol)
Assay type: biochemical
Conditions: recombinant human HSD-1 expressed using baculovirus system; 10 nM 3H cortisone, 500 μM NADPH; room temperature 90 to 120 min; read-out: hHSD1 (IC50 (nM))

T1 sequence (P28845 whole entry): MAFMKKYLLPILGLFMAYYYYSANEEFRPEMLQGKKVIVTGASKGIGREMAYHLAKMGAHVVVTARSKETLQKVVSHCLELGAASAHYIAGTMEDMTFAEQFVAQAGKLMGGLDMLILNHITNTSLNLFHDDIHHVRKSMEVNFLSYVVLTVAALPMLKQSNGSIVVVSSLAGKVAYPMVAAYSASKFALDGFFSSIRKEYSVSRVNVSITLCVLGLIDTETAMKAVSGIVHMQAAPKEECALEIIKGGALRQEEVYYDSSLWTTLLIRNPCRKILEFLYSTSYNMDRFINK

Structure (SMILES)	IC50 [nM]
O=C(c1cnn(C2CN(c3ccc(Cl)cn3)C2)c1C1CC1)N1CCC(c2ccccc2C(F)(F)F)C1 (stereo not shown) [Example 173]	< 30
O=C(NS(=O)(=O)c1ccccc1)N1CCC(n2ncc(C(=O)N3CC[C@@H](c4ccccc4C(F)(F)F)C3)c2C2CC2)CC1 [Example 55, 1-[1-(1-benzenesulfonylaminocarbonylpiperidin-4-yl)-5-cyclopropyl-1H-pyrazole-4-carbonyl]-[(S)-3-(2-trifluoromethylphenyl)]pyrrolidine]	< 30
CC(=O)NC1CN(C(=O)N2CCC(n3ncc(C(=O)N4CC[C@@H](c5ccccc5C(F)(F)F)C4)c3C3CC3)CC2)C1 [Example 45, 1-{1-[1-(3-acetylaminoazetidine-1-carbonyl)piperidin-4-yl]-5-cyclopropyl-1H-pyrazole-4-carbonyl}-[(S)-3-(2-trifluoromethylphenyl)]pyrrolidine]	< 30
O=C(c1cnn(C2CCN(C(=O)N3CCC3)CC2)c1C1CC1)N1CC[C@@H](c2ccccc2C(F)(F)F)C1 [Example 15, 1-{1-[1-(azetidine-1-carbonyl)piperidin-4-yl]-5-cyclopropyl-1H-pyrazole-4-carbonyl}-[(S)-3-(2-trifluoromethylphenyl)]pyrrolidine]	< 30
O=C(c1cnn(C2CCN(c3ccc(N4CCOC4=O)cc3)CC2)c1C1CC1)N1CCC(c2ccccc2C(F)(F)F)C1 (stereo not shown) [Example 169, 1-(5-cyclopropyl-1-{1-[4-(2-oxooxazolidin-3-yl)phenyl]piperidin-4-yl}-1H-pyrazole-4-carbonyl)-3-(2-trifluoromethylphenyl)pyrrolidine]	< 30
O=C(COc1ccccc1)N1CCC(n2ncc(C(=O)N3CCC(c4cccnc4)C3)c2C2CC2)CC1 (stereo not shown) [Example 155, 1-{5-cyclopropyl-1-[1-(2-phenoxyacetyl)piperidin-4-yl]-1H-pyrazole-4-carbonyl}-3-(pyridin-3-yl)pyrrolidine]	< 30
CC(C)C[C@@H](CO)NC(=O)N1CCC(n2ncc(C(=O)N3CC[C@@H](c4ccccc4C(F)(F)F)C3)c2C2CC2)CC1 [Example 52, 1-(5-cyclopropyl-1-{1-[(S)-1-hydroxymethyl-3-methylbutylcarbamoyl]piperidin-4-yl}-1H-pyrazole-4-carbonyl)-[(S)-3-(2-trifluoromethylphenyl)]pyrrolidine]	< 30
O=C(c1cnn(C2CCN(C(=O)N3CCC(F)(F)C3)CC2)c1C1CC1)N1CC[C@@H](c2ccccc2C(F)(F)F)C1 [Example 19, 1-{5-cyclopropyl-1-[1-(3,3-difluoropyrrolidine-1-carbonyl)piperidin-4-yl]-1H-pyrazole-4-carbonyl}-[(S)-3-(2-trifluoromethylphenyl)]pyrrolidine]	< 30
Nc1ccc(N2CCC(n3ncc(C(=O)N4CCC(c5ccccc5C(F)(F)F)C4)c3C3CC3)CC2)cc1 (stereo not shown) [Example 168, 1-{1-[1-(4-aminophenyl)piperidin-4-yl]-5-cyclopropyl-1H-pyrazole-4-carbonyl}-3-(2-trifluoromethylphenyl)pyrrolidine]	< 30
O=C(c1cnn(C2CCN(c3n[nH]c(C(F)(F)F)n3)CC2)c1C1CC1)N1CC[C@@H](c2ccccc2C(F)(F)F)C1 [Example 120, 1-{5-cyclopropyl-1-[1-(5-trifluoromethyl-4H-[1,2,4]triazol-3-yl)piperidin-4-yl]-1H-pyrazole-4-carbonyl}-[(S)-3-(2-trifluoromethylphenyl)]pyrrolidine hydrochloride]	< 30
O=C(c1cnn(C2CCN(C(=O)N3CCS(=O)(=O)CC3)CC2)c1C1CC1)N1CC[C@@H](c2ccccc2C(F)(F)F)C1 [Example 12, 1-{5-cyclopropyl-1-[1-(1,1-dioxothiomorpholine-4-carbonyl)piperidin-4-yl]-1H-pyrazole-4-carbonyl}-[(S)-3-(2-trifluoromethylphenyl)]pyrrolidine]	< 30
O=C(O)c1ccc(N2CCC(n3ncc(C(=O)N4CCC(c5ccccc5C(F)(F)F)C4)c3C3CC3)CC2)s1 (stereo not shown) [Example 115, 5-(4-{5-cyclopropyl-4-[3-(2-trifluoromethylphenyl)pyrrolidine-1-carbonyl]pyrazol-1-yl}piperidin-1-yl)thiophene-2-carboxylic acid]	< 30
O=C(c1cnn(C2CCN(C(=O)N3CC[C@@H](O)C3)CC2)c1C1CC1)N1CC[C@@H](c2ccccc2C(F)(F)F)C1 [Example 21, 1-(5-cyclopropyl-1-{1-[(R)-3-hydroxypyrrolidine-1-carbonyl]piperidin-4-yl}-1H-pyrazole-4-carbonyl)-[(S)-3-(2-trifluoromethylphenyl)]pyrrolidine]	< 30
NC(=O)N1CCC(n2ncc(C(=O)N3CC[C@@H](c4ccccc4C(F)(F)F)C3)c2C2CC2)CC1 [Example 4, 1-[1-(1-carbamoylpiperidin-4-yl)-5-cyclopropyl-1H-pyrazole-4-carbonyl]-[(S)-3-(2-trifluoromethylphenyl)]pyrrolidine]	< 30
O=C(O)c1ccc(N2CCC(n3ncc(C(=O)N4CCC(c5ccccc5C(F)(F)F)C4)c3C3CC3)CC2)c(F)c1 (stereo not shown) [Example 183, Sodium 4-(4-{5-cyclopropyl-4-[3-(2-trifluoromethylphenyl)pyrrolidine-1-carbonyl]pyrazol-1-yl}piperidin-1-yl)-3-fluorobenzoate]	< 30
CC(C)(CC(=O)N1CCC(n2ncc(C(=O)N3CCC(c4ccccc4C(F)(F)F)C3)c2C2CC2)CC1)C(=O)O (stereo not shown) [Example 154, 1-{1-[1-(3-carboxy-3-methyl-butyryl)piperidin-4-yl]-5-cyclopropyl-1H-pyrazole-4-carbonyl}-3-(2-trifluoromethylphenyl)pyrrolidine]	< 30
O=C(c1cnn(C2CCN(C(=O)C3(c4ccc(F)cc4)CC3)CC2)c1C1CC1)N1CC[C@@H](c2ccccc2C(F)(F)F)C1 [Example 66, 1-(5-cyclopropyl-1-{1-[1-(4-fluorophenyl)cyclopropanecarbonyl]piperidin-4-yl}-1H-pyrazole-4-carbonyl)-[(S)-3-(2-trifluoromethylphenyl)]pyrrolidine]	< 30
O=C(Nc1ccccc1O)N1CCC(n2ncc(C(=O)N3CC[C@@H](c4ccccc4C(F)(F)F)C3)c2C2CC2)CC1 [Example 53, 1-{5-cyclopropyl-1-[1-(2-hydroxyphenylcarbamoyl)piperidin-4-yl]-1H-pyrazole-4-carbonyl}-[(S)-3-(2-trifluoromethylphenyl)]pyrrolidine]	< 30
COC(=O)c1ccccc1C1CCN(C(=O)c2cnn(C3CCN(c4ncccn4)CC3)c2C2(C)CC2)C1 (stereo not shown) [Example 179, methyl 2-{1-[5-(1-methylcyclopropyl)-1-(1-pyrimidin-2-ylpiperidin-4-yl)-1H-pyrazole-4-carbonyl]pyrrolidin-3-yl}benzoate]	< 30
NC(=O)C1(CN2CCC(n3ncc(C(=O)N4CC[C@@H](c5ccccc5C(F)(F)F)C4)c3C3CC3)CC2)CC1 [Example 106, 1-{1-[1-(1-carbamoylcyclopropylmethyl)piperidin-4-yl]-5-cyclopropyl-1H-pyrazole-4-carbonyl}-[(S)-3-(2-trifluoromethylphenyl)]pyrrolidine hydrochloride]	< 30
O=C(CO)N1CCC(n2ncc(C(=O)N3CC[C@@H](c4ccccc4C(F)(F)F)C3)c2C2CC2)CC1 [Example 65, 1-{5-cyclopropyl-1-[1-(2-hydroxyacetyl)piperidin-4-yl]-1H-pyrazole-4-carbonyl}-[(S)-3-(2-trifluoromethylphenyl)]pyrrolidine]	< 30
CN(C)C(=O)CN1CCC(n2ncc(C(=O)N3CC[C@@H](c4ccccc4C(F)(F)F)C3)c2C2CC2)CC1 [Example 100, 1-[5-cyclopropyl-1-(1-dimethylcarbamoylmethylpiperidin-4-yl)-1H-pyrazole-4-carbonyl]-[(S)-3-(2-trifluoromethylphenyl)]pyrrolidine hydrochloride]	< 30
NC(=O)CCN1CCC(n2ncc(C(=O)N3CC[C@@H](c4ccccc4C(F)(F)F)C3)c2C2CC2)CC1 [Example 97, 1-{1-[1-(2-carbamoylethyl)piperidin-4-yl]-5-cyclopropyl-1H-pyrazole-4-carbonyl}-[(S)-3-(2-trifluoromethylphenyl)]pyrrolidine hydrochloride]	< 30
CC(=O)N1CCC(NC(=O)N2CCC(n3ncc(C(=O)N4CC[C@@H](c5ccccc5C(F)(F)F)C4)c3C3CC3)CC2)CC1 [Example 43, 1-{1-[1-(1-acetylpiperidin-4-yl-carbamoyl)piperidin-4-yl]-5-cyclopropyl-1H-pyrazole-4-carbonyl}-[(S)-3-(2-trifluoromethylphenyl)]pyrrolidine]	< 30
CS(=O)(=O)Nc1ccc(N2CCC(n3ncc(C(=O)N4CCC(c5ccccc5C(F)(F)F)C4)c3C3CC3)CC2)cc1 (stereo not shown) [Example 171, 1-{5-cyclopropyl-1-[1-(4-methanesulfonylaminophenyl)piperidin-4-yl]-1H-pyrazole-4-carbonyl}-3-(2-trifluoromethylphenyl)pyrrolidine]	< 30
NC1CCN(C(=O)N2CCC(n3ncc(C(=O)N4CC[C@@H](c5ccccc5C(F)(F)F)C4)c3C3CC3)CC2)CC1 [Example 35, 1-{1-[1-(4-aminopiperidine-1-carbonyl)piperidin-4-yl]-5-cyclopropyl-1H-pyrazole-4-carbonyl}-[(S)-3-(2-trifluoromethylphenyl)]pyrrolidine hydrochloride]	< 30
CC1(c2c(C(=O)N3CCC(CO)(c4cc(F)cc(F)c4)C3)cnn2C2CCN(c3ncccn3)CC2)CC1 (stereo not shown) [Example 186, 3-(3,5-difluorophenyl)-3-hydroxymethyl-1-{5-(1-methylcyclopropyl)-1-[1-(pyrimidin-2-yl)piperidin-4-yl]-1H-pyrazole-4-carbonyl}pyrrolidine hydrochloride]	< 30
CC1(c2c(C(=O)N3CCC(c4ccccc4)(C(F)(F)F)C3)cnn2C2CCN(C(=O)Nc3ccccc3F)CC2)CC1 (stereo not shown) [Example 135, 1-{1-[1-(2-fluorophenylcarbamoyl)piperidin-4-yl]-5-(1-methylcyclopropyl)-1H-pyrazole-4-carbonyl}-3-phenyl-3-trifluoromethylpyrrolidine]	< 30
